Results from patent publication US4007177A, “Cephalosporin derivatives” (Sankyo Company Limited, priority 1973, dated 1977).
In brackets after ≈: the same amount, converted by molar mass. Where two headings read alike, the source gives them in different places.

What was measured:
Assay type in all cases: cell-based
Klebsiella 806 = assay: Minimum inhibitory concentration, Klebsiella 806
Experimental: (§1) Minimum inhibitory concentrations (MIC) were determined for the compounds of this invention.

Salm. ent. Gaertner = assay: Minimum inhibitory concentration, Salm. ent. Gaertner; conditions: read-out: Minimum Inhibitory Concentration
Experimental: as §1

S.aureus R = assay: Minimum inhibitory concentration, S.aureus R; conditions: Staphylococcus aureus
Experimental: as §1

E. coli NIHJ = assay: Minimum inhibitory concentration, E. coli NIHJ; conditions: Escherichia coli
Experimental: as §1

Sh. flexneri 2a = assay: Minimum inhibitory concentration, Sh. flexneri 2a; conditions: Shigella flexneri
Experimental: as §1

Prot. vulgaris = assay: Minimum inhibitory concentration, Prot. vulgaris; conditions: Proteus vulgaris
Experimental: as §1

Klebsiella 846 = assay: Minimum inhibitory concentration, Klebsiella 846
Experimental: as §1

E. coli 609 (R) = assay: Minimum inhibitory concentration, E. coli 609 (R); conditions: Escherichia coli, read-out: Minimum Inhibitory Concentration
Experimental: as §1

S.aureus 209p = assay: Minimum inhibitory concentration, S.aureus 209p; conditions: Staphylococcus aureus
Experimental: as §1

| SMILES | MIC (Klebsiella 806) [µg/mL] | MIC (Salm. ent. Gaertner; Salm. ent. Gaertner) [µg/mL] | MIC (S.aureus R) [µg/mL] | MIC (E. coli NIHJ) [µg/mL] | MIC (Sh. flexneri 2a) [µg/mL] | MIC (Prot. vulgaris) [µg/mL] | MIC (Klebsiella 846) [µg/mL] | MIC (E. coli 609 (R); E. coli 609 (R)) [µg/mL] | MIC (S.aureus 209p) [µg/mL] | MIC (Salm. ent. Gaertner) [µg/mL] | MIC (E. coli 609 (R)) [µg/mL] |
| --- | --- | --- | --- | --- | --- | --- | --- | --- | --- | --- | --- |
| COC1(NC(=O)C[n+]2cc([O-])on2)C(=O)N2C(C(=O)O)=C(CSc3nnnn3C)CSC21 (stereo not drawn) | 1.5 (≈ 3.1 µM) | 0.8 (≈ 1.65 µM) | 1.5 (≈ 3.1 µM) | 1.5 (≈ 3.1 µM) | 1.5 (≈ 3.1 µM) | 6.2 (≈ 12.8 µM) | > 200 | 1.5 (≈ 3.1 µM) | 0.8 (≈ 1.65 µM) | – | – |
| COC1(NC(=O)COc2ccon2)C(=O)N2C(C(=O)O)=C(CSc3nnnn3C)CSC21 (stereo not drawn) | 3.1 (≈ 6.41 µM) | 1.5 (≈ 3.1 µM) | 0.8 (≈ 1.65 µM) | 3.1 (≈ 6.41 µM) | 3.1 (≈ 6.41 µM) | 6.2 (≈ 12.8 µM) | > 400 | 3.1 (≈ 6.41 µM) | 0.2 (≈ 0.414 µM) | – | – |
| COC1(NC(=O)CSc2ccon2)C(=O)N2C(C(=O)O)=C(CSc3nnnn3C)CSC21 (stereo not drawn) | 6.2 (≈ 12.4 µM) | 0.8 (≈ 1.6 µM) | 0.8 (≈ 1.6 µM) | 3.1 (≈ 6.21 µM) | 3.1 (≈ 6.21 µM) | 3.1 (≈ 6.21 µM) | > 400 | 3.1 (≈ 6.21 µM) | 0.2 (≈ 0.4 µM) | – | – |
| COC1(NC(=O)CSc2ccon2)C(=O)N2C(C(=O)O)=C(COC(C)=O)CSC21 (stereo not drawn) [3-Acetoxymethyl-7β-(3-isoxazolylthioacetamido)-7α-methoxy-3-cephem-4-carboxylic acid] | – | – | 0.8 (≈ 1.8 µM) | – | 6.2 (≈ 14 µM) | – | > 400 | – | 0.2 (≈ 0.451 µM) | – | – |
| CCS(=O)(=O)CC(=O)N[C@]1(OC)C(=O)N2C(C(=O)O)=C(CSc3nnnn3C)CS[C@@H]21 [C2 H 5 SO2, 7β-Ethylsulfonylacetamido-7α-methoxy-3-(1-methyl-1H-tetrazol-5-yl)thiomethyl-3-cephem-4-carboxylic acid] | 1.5 (≈ 3.05 µM) | 0.8 (≈ 1.62 µM) | 1.5 (≈ 3.05 µM) | 1.5 (≈ 3.05 µM) | 1.5 (≈ 3.05 µM) | 6.2 (≈ 12.6 µM) | > 400 | 1.5 (≈ 3.05 µM) | 1.5 (≈ 3.05 µM) | – | – |
| COC1(NC(=O)Cc2ccccc2)C(=O)N2C(C(=O)O)=C(COC(N)=O)CSC21 (stereo not drawn) [C6 H5, reference compound] | 25 (≈ 59.3 µM) | – | 3.1 (≈ 7.36 µM) | 25 (≈ 59.3 µM) | 12.5 (≈ 29.7 µM) | 25 (≈ 59.3 µM) | > 400 | 25 (≈ 59.3 µM) | 0.8 (≈ 1.9 µM) | 12.5 (≈ 29.7 µM) | – |
| COC1(NC(=O)CS(C)(=O)=O)C(=O)N2C(C(=O)O)=C(CSc3nnnn3C)CSC21 (stereo not drawn) [CH3 SO2, 7α-Methoxy-7β-methylsulfonylacetamido-3-(1-methyl-1H-tetrazol-5-yl)thiomethyl-3-cephem-4-carboxylic acid] | 0.8 (≈ 1.67 µM) | 0.4 (≈ 0.836 µM) | – | – | 1.5 (≈ 3.13 µM) | – | 400 (≈ 836 µM) | – | 0.8 (≈ 1.67 µM) | – | – |
| CC(=O)OCC1=C(C(=O)O)N2C(=O)[C@@H](NC(=O)Cc3cccs3)[C@H]2SC1 [Cephalothin, reference compound] | 6.2 (≈ 15.6 µM) | 6.2 (≈ 15.6 µM) | – | 6.2 (≈ 15.6 µM) | 12.5 (≈ 31.5 µM) | 6.2 (≈ 15.6 µM) | > 200 | – | – | – | 25 (≈ 63.1 µM) |
| C#CCSCC(=O)NC1(OC)C(=O)N2C(C(=O)O)=C(CSc3nnnn3C)CSC21 (stereo not drawn) [HCCCH2 S, 3-(1-Methyl-1H-tetrazol-5-yl)thiomethyl-7β-propargylthioacetamido-7α-methoxy-3-cephem-4-carboxylic acid] | – | 0.8 (≈ 1.7 µM) | 0.8 (≈ 1.7 µM) | – | 3.1 (≈ 6.59 µM) | – | 400 (≈ 850 µM) | – | 0.2 (≈ 0.425 µM) | – | – |
| COC1(NC(=O)CSCCO)C(=O)N2C(C(=O)O)=C(CSc3nnnn3C)CSC21 (stereo not drawn) [HOCH2 CH2 S, 7β-(2-Hydroxyethyl)thioacetamido-7α-methoxy-3-(1-methyl-1H-tetrazol-5-yl)thiomethyl-3-cephem-4-carboxylic acid] | 1.5 (≈ 3.15 µM) | 1.5 (≈ 3.15 µM) | 1.5 (≈ 3.15 µM) | 1.5 (≈ 3.15 µM) | 3.1 (≈ 6.5 µM) | 6.2 (≈ 13 µM) | 400 (≈ 839 µM) | 1.5 (≈ 3.15 µM) | 0.8 (≈ 1.68 µM) | – | – |
| CO[C@@]1(NC(=O)CSCN=[N+]=[N-])C(=O)N2C(C(=O)O)=C(COC(N)=O)CS[C@@H]21 [N3 CH2 S, OCONH2, 7β-Azidomethylthioacetamido-3-carbamoyloxymethyl-7α-methoxy-3-cephem-4-carboxylic acid] | 3.1 (≈ 7.17 µM) | 1.5 (≈ 3.47 µM) | 1.5 (≈ 3.47 µM) | 3.1 (≈ 7.17 µM) | 3.1 (≈ 7.17 µM) | 3.1 (≈ 7.17 µM) | > 400 | 6.2 (≈ 14.3 µM) | 0.2 (≈ 0.462 µM) | – | – |
| COC1(NC(=O)CSCN=[N+]=[N-])C(=O)N2C(C(=O)O)=C(CSc3nnnn3C)CSC21 (stereo not drawn) [N3 CH2 S] | 3.1 (≈ 6.36 µM) | 0.8 (≈ 1.64 µM) | 0.4 (≈ 0.82 µM) | 3.1 (≈ 6.36 µM) | 1.5 (≈ 3.08 µM) | 1.5 (≈ 3.08 µM) | > 200 | 3.1 (≈ 6.36 µM) | 0.4 (≈ 0.82 µM) | – | – |
| COC1(NC(=O)CS(=O)(=O)CCC#N)C(=O)N2C(C(=O)O)=C(CSc3nnnn3C)CSC21 (stereo not drawn) [NCCH2 CH2 SO2, 7β-(2-Cyanoethylsulfonyl)acetamido-7α-methoxy-3-(1-methyl-1H-tetrazol-5-yl)thiomethyl-3-cephem-4-carboxylic acid] | 1.5 (≈ 2.9 µM) | 0.8 (≈ 1.55 µM) | 3.1 (≈ 5.99 µM) | 1.5 (≈ 2.9 µM) | 3.1 (≈ 5.99 µM) | 6.2 (≈ 12 µM) | 200 (≈ 386 µM) | 1.5 (≈ 2.9 µM) | 1.5 (≈ 2.9 µM) | – | – |
